Measured values reported in patent US9957264B2 (Merck Sharp & Dohme Corp., priority 2013, dated 2018).

Tests used:
[1] = biological target: JAK2 (recombinant purified GST-tagged catalytic domain) (Homo sapiens (Human), UniProt O60674); assay: Jak Biochemical HTRF Assay (JAK2); settings: [ATP] 8.5 μM
[2] = biological target: JAK1 (recombinant purified GST-tagged catalytic domain) (Homo sapiens (Human), UniProt P23458); assay: Jak Biochemical HTRF Assay (JAK1); settings: [ATP] 31.8 μM
How it was run: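 Phosphorylation of a common biotinylated peptide by each catalytic domain is measured by HTRF. The ATP-started reaction runs 120 min at room temperature before EDTA quench and detection.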

Sequence of JAK1 (recombinant purified GST-tagged catalytic domain) (P23458 875-1153): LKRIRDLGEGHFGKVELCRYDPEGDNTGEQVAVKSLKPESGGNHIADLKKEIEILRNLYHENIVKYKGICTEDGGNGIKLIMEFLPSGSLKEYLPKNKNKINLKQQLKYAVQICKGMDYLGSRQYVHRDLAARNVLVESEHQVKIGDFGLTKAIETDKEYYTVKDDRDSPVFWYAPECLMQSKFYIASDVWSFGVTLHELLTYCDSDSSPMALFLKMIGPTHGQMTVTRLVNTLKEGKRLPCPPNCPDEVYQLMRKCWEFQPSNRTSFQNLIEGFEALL
Sequence of JAK2 (recombinant purified GST-tagged catalytic domain) (O60674 849-1124): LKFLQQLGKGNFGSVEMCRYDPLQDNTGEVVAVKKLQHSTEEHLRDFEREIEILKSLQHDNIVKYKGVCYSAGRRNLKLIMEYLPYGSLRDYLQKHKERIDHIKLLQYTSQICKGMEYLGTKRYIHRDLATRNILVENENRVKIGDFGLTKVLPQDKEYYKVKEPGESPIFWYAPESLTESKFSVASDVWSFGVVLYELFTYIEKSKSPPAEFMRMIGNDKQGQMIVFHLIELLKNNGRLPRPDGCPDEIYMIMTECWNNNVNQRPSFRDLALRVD

SMILES	IC50 [1] [pM]	IC50 [2] [pM]
CN(C)S(=O)(=O)c1ccc(Nc2nn(C3(CC#N)CCN(C(=O)c4ccccc4)CC3)c3cc[nH]c(=O)c23)cc1 [Example 9-12, 4-({1-[4-(cyanomethyl)-1-(phenylcarbonyl)piperidin-4-yl]-4-oxo-4,5-dihydro-1H-pyrazolo[4,3-c]pyridin-3-yl}amino)-N,N-dimethylbenzenesulfonamide]	16800	1690
CN(C)S(=O)(=O)c1ccc(Nc2nn(C3(CC#N)CCN(C(=O)c4ccc(Cl)cc4)CC3)c3cc[nH]c(=O)c23)cc1 [Example 9-13, 4-[(1-{1-[(4-chlorophenyl)carbonyl]-4-(cyanomethyl)piperidin-4-yl}-4-oxo-4,5-dihydro-1H-pyrazolo[4,3-c]pyridin-3-yl)amino]-N,N-dimethylbenzenesulfonamide]	12000	1080
CN(C)S(=O)(=O)c1ccc(Nc2nn(C3(CC#N)CCN(C(=O)c4cccc(Cl)c4)CC3)c3cc[nH]c(=O)c23)cc1 [Example 9-14, 4-[(1-{1-[(3-chlorophenyl)carbonyl]-4-(cyanomethyl)piperidin-4-yl}-4-oxo-4,5-dihydro-1H-pyrazolo[4,3-c]pyridin-3-yl)amino]-N,N-dimethylbenzenesulfonamide]	1960	230
CN(C)S(=O)(=O)c1ccc(Nc2nn(C3(CC#N)CCN(C(=O)c4ccccc4Cl)CC3)c3cc[nH]c(=O)c23)cc1 [Example 9-15, 4-[(1-{1-[(2-chlorophenyl)carbonyl]-4-(cyanomethyl)piperidin-4-yl}-4-oxo-4,5-dihydro-1H-pyrazolo[4,3-c]pyridin-3-yl)amino]-N,N-dimethylbenzenesulfonamide]	8380	810
CN(C)S(=O)(=O)c1ccc(Nc2nn(C3(CC#N)CCN(C(=O)CCc4ccccc4)CC3)c3cc[nH]c(=O)c23)cc1 [Example 9-17, 4-({1-[4-(cyanomethyl)-1-(3-phenylpropanoyl)piperidin-4-yl]-4-oxo-4,5-dihydro-1H-pyrazolo[4,3-c]pyridin-3-yl}amino)-N,N-dimethylbenzenesulfonamide]	700	150
CN(C)S(=O)(=O)c1ccc(Nc2nn(C3(CC#N)CCN(C(=O)C4Cc5ccccc5C4)CC3)c3cc[nH]c(=O)c23)cc1 [Example 9-18, 4-({1-[4-(cyanomethyl)-1-(2,3-dihydro-1H-inden-2-ylcarbonyl)piperidin-4-yl]-4-oxo-4,5-dihydro-1H-pyrazolo[4,3-c]pyridin-3-yl}amino)-N,N-dimethylbenzenesulfonamide]	390	140
CN(C)S(=O)(=O)c1ccc(Nc2nn(C3(CC#N)CCN(C(=O)CN4CCCC4=O)CC3)c3cc[nH]c(=O)c23)cc1 [Example 9-19, 4-[(1-{4-(cyanomethyl)-1-[(2-oxopyrrolidin-1-yl)acetyl]piperidin-4-yl}-4-oxo-4,5-dihydro-1H-pyrazolo[4,3-c]pyridin-3-yl)amino]-N,N-dimethylbenzenesulfonamide]	3140	260
CN(C)S(=O)(=O)c1ccc(Nc2nn(C3(CC#N)CCN(C(=O)C4CCOCC4)CC3)c3cc[nH]c(=O)c23)cc1 [Example 9-20, 4-({1-[4-(cyanomethyl)-1-(tetrahydro-2H-pyran-4-ylcarbonyl)piperidin-4-yl]-4-oxo-4,5-dihydro-1H-pyrazolo[4,3-c]pyridin-3-yl}amino)-N,N-dimethylbenzenesulfonamide]	2480	310
CN(C)S(=O)(=O)c1ccc(Nc2nn(C3(CC#N)CCN(C(=O)CCC(F)(F)F)CC3)c3cc[nH]c(=O)c23)cc1 [Example 9-21, 4-({1-[4-(cyanomethyl)-1-(4,4,4-trifluorobutanoyl)piperidin-4-yl]-4-oxo-4,5-dihydro-1H-pyrazolo[4,3-c]pyridin-3-yl}amino)-N,N-dimethylbenzenesulfonamide]	330	80
